According to patent US11413302B2, “Use of carrimycin or active ingredients thereof and use thereof” (SHENYANG FUYANG PHARMACEUTICAL TECHNOLOGY CO., LTD., priority 2018, dated 2022):

How the values were obtained:
rats induced by Aβ1-42 [1] = experiment: rat Morris water-maze experiment, Aβ1-42 AD model; format: in vivo, Sprague Dawley rats; conditions: 30 mg/kg
Protocol: (§3) The mice were randomly divided into 6 groups, a sham-operation control group, a model group, three groups were fed with 25, 50 and 100 mg/kg of carrimycin, and one group was fed with 30 mg/kg of the positive drug resveratrol.
(§4) Experimental process: Aβ1-42 was dissolved by using a hexafluoroisopropanol/sterile normal-saline solution to obtain the concentration of 2 μg/μL, incubated and aged at 4° C. for 24 h to form a AO oligomer, and reserved. […] 2.5 μL, (0.5 μL/min) was injected within 5 min into each side of the hippocampus, and the needle was retained for 5 min, to result in a rat dementia model.
On the next day after the model was established, the sham-operation control group and the model group were administered intragastrically by using the corresponding solvents, the other experimental groups were administered intragastrically by using 25, 50 and 100 mg/kg of carrimycin and 30 mg/kg of the positive drug resveratrol. On the 12th day after Aβ1-42 was injected into the hippocampus, the experiments of Y maze, new-object distinguishing and water maze were carried out in sequence. Continue to administer during the behavioral experiment 1 time per day till the behavioristics end.
The rat water-maze experiment: on the 16-20th day after the administration, the Morris water-maze experiment was performed on the groups of rats. The Morris water-maze experiment aims at investigating the influence by Carrimycin on the space studying memory disorder. The water-maze apparatus is composed of a black stainless-steel circular water pool with the diameter of 1.5 meters and the height of 50 centimeters and a circular metal platform with the diameter of 10 centimeters, and the platform can freely move. Before the experiment, the water pool was filled with water (water temperature 24±1° C.) to cause the water level to be above the platform by 1 centimeter. In the training phase, training is performed 1 time in the morning and afternoon per day for 6 days. […]

rats induced by Aβ1-42 [2] = experiment: rat new-object-distinguishing experiment, Aβ1-42 AD model; set-up: species or system Sprague Dawley rats; conditions: in vivo
Protocol: as §3, §4
On the next day after the model was established, the sham-operation control group and the model group were administered intragastrically by using the corresponding solvents, the other experimental groups were administered intragastrically by using 25, 50 and 100 mg/kg of carrimycin and 30 mg/kg of the positive drug resveratrol. […]
The rat new-object-distinguishing experiment: on the 14-15th day after the administration, the new-object-distinguishing experiment was performed on the groups of rats. […] The test was performed on the third day, in which each time one rat was placed into the open field to firstly freely explore for 3min, and was then taken out, 2 same objects (A1, A2) were placed into the center of the open field, the rat was placed into the open field, and the durations (tA1, tA2) during which the rat exploreed the two objects within 5 min were recorded. After 1 h, the object A2 was replaced with a new object B, the rat was placed into the open field again, and the durations (tA1, tB) during which the rat explored the two objects were recorded. After 24 h, the object B was replaced with an object C, the rat was placed into the open field again, and the durations (tA1, tC) during which the rat explored the two objects were recorded. […] The preferential index and the discrimination index to the new objects are calculated. […]

rats induced by Aβ1-42 [3] = experiment: rat Y-maze experiment, Aβ1-42 AD model; format: in vivo, Sprague Dawley rats; conditions: 30 mg/kg
Protocol: The rat Y-maze experiment: on the 12th day after the administration, the Y-maze experiment was performed on the groups of rats. […] In the experiment, the rats were placed into the tip of the arm A, and were permitted to freely enter and leave the three arms. The total time quantity of entering the arms and the order of entering the arms within 8 min of each of the rats were recorded. By using the continuous entering into the three different arms as one correct alternate reaction, the time quantity of the correct alternate reactions was recorded. The spontaneous alternate reaction rate is used to reflect the capacity of space working memory.

[4] = body weight of alloxan diabetes mice; format: in vivo, Kunming mice; conditions: 200 mg/kg, gavage
Protocol: (§1) The study on the effect of Carrimycin on reducing blood sugar comprises Kunming mice was selected, single intraperitoneal injection with 160 mg/kg of alloxan was subjected to Kunming mice to form model mice. The mice whose values of blood sugar are stable at the modeling level (10˜25mmol/L) were selected, divided randomly into a model control group, a positive control group (200 mg/kg of metformin) and an administration group (with Carrimycin as the drug, 25, 50 and 100 mg/kg). Simultaneously a normal control group was provided, and was given gastric normal saline.
(§2) After the model was made and gavage was given for 30 and 45 days, the mice were fasted for 16 hours, and the mice were weighed. After weighing, blood was collected at the tail tip, and the fasting blood sugar was measured by using a blood-sugar meter. After the value of fasting blood sugar was measured, the […] were administered by intragastric administration once. After 2 h, mice in each group were given a glucose solution by gavage at 2 g/kg, and blood was collected at the tip of the tail. The blood sugar values at 0, 0.5 and 2 h were measured after the administration of glucose (Bg0, Bg0.5 and Bg2), and the area (AUC) (reaction sugar tolerance) under the blood sugar curve was calculated by using the following formula: AUC=0.25*(Bg0+4*Bg0.5+3*Bg2); and […]

diabetes mouse [5] = experiment: fasting blood sugar of alloxan diabetes mice; format: in vivo, Kunming mice; conditions: 200 mg/kg
Protocol: as §1, §2

diabetes mouse [6] = experiment: sugar tolerance of diabetes mouse (glucose 2 g/kg by gavage); format: in vivo, Kunming mice; conditions: 200 mg/kg; for Blood sugar value 0 h: 0 h after glucose; for Blood sugar value 0.5 h: 0.5 h after glucose; for Blood sugar value 2 h: 2 h after glucose
Protocol: as §1, §2

diabetes mouse [7] = experiment: fasting insulin (ELISA) and insulin resistance of alloxan diabetes mice; format: in vivo, Kunming mice; conditions: 200 mg/kg; 45 days; fasting blood sugar*fasting insulin/22.5
Protocol: as §1
After the model was made and gavage was given for 45 days, the mice were fasted for 16 h, and blood was collected from the fundus venous plexus. Before taking blood, the capillary was moistened with heparin, 0.5 ml of blood was collected from the fundus venous plexus, centrifuged at 3500 r/min for 10 min, and plasma was separated for testing. The supernatant was sucked, and the insulin was measured by using the ELISA method. […]
The measurement of the insulin resistance: after the concentrations of fasting blood sugar and insulin have been measured, the insulin resistance was calculated by using the formula: insulin resistance=fasting blood sugar*fasting insulin/22.5 (it is recently reported that when it is>2.6, it is determined that insulin resistance exists).

INS-1 cell = experiment: protection of INS-1 islet cell against alloxan damage (MTT); format: cell-based, Rat; conditions: 0.5 mM; 24 mmol/L alloxan damage, 24 h
Protocol: the INS-1 cell was the adherent cell, the INS-1 cell in the logarithmic growth phase was used, digested by using trypsin, beated by using a complete medium, and prepared into a single-cell suspension. The cell concentration was adjusted to be 1*10^5/ml, and the cell was inoculated into the 96-well culture plate with 100 μl per well, cultured in the incubator at 5% CO2 and 37° C. for 24 h. The cells were grouped according to the demands of the experiment, the cell of the administration groups were administered with 24 mmol/L of alloxan damage, simultaneously were administered with the drug to be tested Carrimycin with different concentrations (0.2, 0.4 and 0.8 mM), 4 complex wells for each of the concentrations were provided, and all groups were continued to be cultured at 37° C. for 24 h. Additionally a normal control group (no medication administered), a model group (merely administered with alloxan damage) and a positive control group (based on the alloxan treatment, 0.5 mmol/L of metformin was added) were provided. […] And the optical density of all groups were measured by using a microplate reader at 492 nm.
The survival rate of the INS-1 cell treated by the drug is calculated by using the following formula: Survival rate of INS cell (%)=A492 (administration group)/A492 (normal control group)×100%

For Oc1ccc(C=Cc2cc(O)cc(O)c2)cc1 [Resveratrol, resveratrol], which escape latent periods (rats induced by Aβ1-42 [1]; 2nd day, trend maintained on 3rd and 4th days, compared with the model group, FIG. 7) is on record?
The escape latent periods was “significantly decreased”.

And the swimming speeds (rats induced by Aβ1-42 [1]; between groups, FIG. 9)?
The swimming speeds was “did not have a significant difference”.

And the “time quantities of passing through of the platform” value (rats induced by Aβ1-42 [1]; compared with the model group, FIG. 8)?
Its value is “significantly increased”.

And the “Discrimination index on A1 and A2 (%)” value (rats induced by Aβ1-42 [2])?
The value was 52.87 ± 5.43%.

And the “discrimination indexes on the new objects” value (rats induced by Aβ1-42 [2])?
The value was “significantly increased”.

What about the “preferential indexes on the new objects” value (rats induced by Aβ1-42 [2]) of the same molecule?
The value was “significantly increased”.

What about the “total time quantities of entering the arms” value (rats induced by Aβ1-42 [3]; between groups, FIG. 2) of the same molecule?
Its value is “did not have a significant difference”.

And the “Y-maze spontaneous alternate reaction rate” value (rats induced by Aβ1-42 [3]; compared with the model group, FIG. 1)?
Its value is “significantly increased”.

What does the source list for CN(C)C(=N)N=C(N)N [metformin]?
Body weight gain on 30th day [4]: 5.94 ± 1.03 g; Body weight gain on 45th day [4]: 7.26 ± 1.48 g; blood sugar, 0 day (diabetes mouse [5]; 0 day): 18.07 ± 1.26^*** mmol/L; blood sugar, 30th day (diabetes mouse [5]; 30th day, fasted 16 h): 14.94 ± 1.03^**# mmol/L; blood sugar, 45th day (diabetes mouse [5]; 45th day, fasted 16 h): 10.24 ± 1.07^*## mmol/L; AUC under the blood sugar curve (diabetes mouse [6]; 30th day): 33.6 ± 2.7^**#; Blood sugar value 0 h (diabetes mouse [6]; 30th day): 14.6 ± 1.4^**; Blood sugar value 0.5 h (diabetes mouse [6]; 30th day): 19.8 ± 1.8^**##; Blood sugar value 2 h (diabetes mouse [6]; 30th day): 13.5 ± 1.9^**#; AUC under the blood sugar curve (diabetes mouse [6]; 45th day): 32.3 ± 2.1^**#; Blood sugar value 0 h (diabetes mouse [6]; 45th day): 14.1 ± 1.5^**; Blood sugar value 0.5 h (diabetes mouse [6]; 45th day): 18.9 ± 1.7^**#; Blood sugar value 2 h (diabetes mouse [6]; 45th day): 13.2 ± 1.7^**#; Insulin resistance (IR) (diabetes mouse [7]): 1.06^**###; Survival rate (%) (INS-1 cell): 92.91 ± 6.69 %
